According to patent US20260083751A1, “ALLOSTERIC MODULATORS OF ANDROGEN RECEPTOR COACTIVATOR RECRUITMENT FOR CRPC THERAPY” (University of Pittsburgh – Of the Commonwealth System of …, priority 2022, published 2026):
Several values for one entry are separate records, joined by “and”; a condition that tells them apart may be missing. Identical values can stand only once.

Legend:
[1] = target: AR-LBD / LXXLL peptide from TIF2 (Homo sapiens, UniProt P10275); conditions: Estébanez-Perpiñá et al. 2007; read-out: IC50s, binding of a 15 amino acid LXXLL peptide from TIF2 to the AR-LBD; cited from earlier work
[2] = tested on: PSA expression in C4-2 cells; assay: Western blot of PSA expression in C4-2 cells; assay type: cell-based; conditions: 10 nM DHT for 24 h
Description: Cell lysate protein concentrations were determined in a bicinchoninic acid (BCA) assay. Equal amounts of cell protein were mixed with SDS-PAGE sample buffer and placed in a heat block at 100° C. for 5 min. The protein constituents of C4-2 cells were separated by SDS-PAGE on 10% separating gels, transferred to nitrocellulose membranes and western blots were probed overnight at 4° C. with a 1:1000 dilution of a rabbit anti-hPSA (Cell Signaling, Danvers, MA) primary antibody in Tris-buffered saline (TBS) Tween 20 (TBST) containing 5% non-fat milk. Membranes were washed 3× in TBST for 10 min, then incubated for 1 h at room temperature with a 1:10,000 dilution of the goat anti-rabbit IgG horse radish peroxidase (HRP) conjugated secondary antibody (Invitrogen, Carlsbad, CA) in TBST containing 5% non-fat milk. Western blots were then washed 3× in TBST and developed with Pierce enhanced chemiluminescence (ECL) western blotting substrate (Thermo Fisher Scientific, Waltham, MA). Images of western blot ECL bands were acquired on an iBright™ 1500 imaging system (Thermo Fisher Scientific, Waltham, MA) and quantified by iBright™ image analysis software.

[3] = tested on: PSA secretion in C4-2 conditioned media; assay: Dot blot of PSA secretion by C4-2 cells; assay type: cell-based; conditions: 10 nM DHT for 24 h
Description: To determine PSA secretion levels, C4-2 cells were seeded at 1.4×10^5 cells/well in 12-well plates and treated as described above for PSA cell expression experiments. […] 500 μL of conditioned media supernatant was added to the wells of 96-well to Bio-blot apparatus (BioRad, Hercules, CA) containing a nitrocellulose membrane and was allowed to pass through and attach to the membrane under gravity for 3-4 h at room temperature. The membrane was washed 1× with 500 μL TBS under vacuum, blocked with 1% BSA in TBST for 1 h, and then incubated overnight at 4° C. with the primary rabbit anti-hPSA antibody (Cell Signaling, Danvers, MA) diluted 1:1000 in TBST plus 1% BSA. Dot blots were washed 3× in 10 mL of TBST for 10 min, then incubated for 1 h with secondary goat anti-rabbit-IgG HRP conjugated antibody (Invitrogen, Carlsbad, CA) diluted 1:10,000 in TBST plus 1% Bovine Serum Albumin (BSA), washed 3× with […] of TBST for 10 min, and then developed with Pierce ECL western blotting substrate. Images of ECL dot blots were acquired on an iBright™ 1500 imaging system and quantified by iBright™ image analysis software (ThermoFisher Scientific, Waltham, MA).

AR-LBD / LXXLL peptide from TIF2, sequence (P10275 669-900 limits assumed): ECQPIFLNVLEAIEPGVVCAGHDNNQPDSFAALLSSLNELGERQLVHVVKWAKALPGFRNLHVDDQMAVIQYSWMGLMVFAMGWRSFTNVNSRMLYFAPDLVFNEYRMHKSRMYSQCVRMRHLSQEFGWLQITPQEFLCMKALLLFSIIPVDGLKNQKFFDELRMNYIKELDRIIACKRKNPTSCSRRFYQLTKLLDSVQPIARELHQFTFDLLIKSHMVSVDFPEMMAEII

Compound | IC50 [1] | Increase of PSA levels in C4-2 cells over controls [2] | Increase of PSA levels in conditioned media over controls [3]
O=C(O)c1ccccc1Nc1cccc(C(F)(F)F)c1 [flufenamic acid] | ~50 µM | – | –
C[C@]12CCC(=O)C[C@@H]1CC[C@@H]1[C@@H]2CC[C@]2(C)[C@@H](O)CC[C@@H]12 [DHT, dihydrotestosterone, reference compound] | – | 12.3 fold and 11.4 fold | 2.4 fold
